Test results from patent US4299813A, “Assay kit and method” (priority 1979, dated 1981).
Where “and” joins values, the source holds several entries; their conditions need not be identical. Equal entries are not always repeated.

Tested on: muscarinic cholinergic receptor
Assay: Muscarinic cholinergic radioreceptor assay ([3H] QNB competition, serum antidepressant levels)
Assay type: binding, rat (Sprague-Dawley)
[1] = Standard C, 5.0 μM amitriptyline, Table II
[2] = Standard D, 1.0 μM amitriptyline, Table II
[3] = Standard E, 0.2 μM amitriptyline, Table II
[4] = Standard C, 50 μM imipramine, Table III
[5] = Standard D, 10 μM imipramine, Table III
[6] = Standard E, 2 μM imipramine, Table III

CN(C)CCC=C1c2ccccc2CCc2ccccc21 [amitriptyline]
CPM (Sample 1, serum, Table II): 2537 CPM and 2867 CPM | Logit (B/Bo) (Sample 1, serum, Table II): -0.644 and -0.562 | CPM (Sample 2, serum, Table II): 7735 CPM and 7778 CPM and 7386 CPM | Logit (B/Bo) (Sample 2, serum, Table II): 0.288 and 0.295 and 0.227 | CPM (Standard A, 10^-5 M amitriptyline (background), Table II): 533 CPM and 529 CPM and 479 CPM | CPM (Standard A, 10^-5 M amitriptyline (background), imipramine curve, Table III): 533 CPM and 529 CPM and 479 CPM | CPM [1]: 1914 CPM and 1790 CPM and 1679 CPM | Logit (B/Bo) [1]: -0.834 and -0.879 and -0.924 | CPM [2]: 5285 CPM and 5442 CPM and 5239 CPM | Logit (B/Bo) [2]: -0.112 and -0.087 and -0.119 | CPM [3]: 9240 CPM and 9692 CPM | Logit (B/Bo) [3]: 0.595 and 0.716 | CPM (Standard F, 0.04 μM amitriptyline, Table II): 11235 CPM

CN(C)CCCN1c2ccccc2CCc2ccccc21 [imipramine]
CPM (Sample 1, serum, Table III): 7105 CPM and 7146 CPM and 6773 CPM | Logit (B/Bo) (Sample 1, serum, Table III): 0.180 and 0.187 and 0.125 | CPM (Sample 2, serum, Table III): 9642 CPM and 8636 CPM and 8069 CPM | CPM [4]: 4922 CPM and 4908 CPM and 4803 CPM | Logit (B/Bo) [4]: -0.171 and -0.173 and -0.191 | CPM [5]: 8706 CPM and 8704 CPM and 8799 CPM | Logit (B/Bo) [5]: 0.473 and 0.493 | CPM [6]: 10370 CPM and 10617 CPM and 10843 CPM | Logit (B/Bo) [6]: 0.957 and 1.079 and 1.224
